Data from patent US11591632B2, “Genetically-mutated bacterial strain for detecting estrogenic compound and method for detecting estrogenic compound using the same” (INDUSTRY-UNIVERSITY COOPERATION FOUNDATION HANYANG …, priority 2016, dated 2023).

How the values were obtained:
hERα LBD [1] = target: T1, hERα LBD (Homo sapiens, UniProt P03372); assay type: cell-based; conditions: E. coli FW102 OL2-62 pACλCI::RIP140-FLAG pBRαNTD::hERα LBD-FLAG, 20 μM IPTG, 30 minutes incubation
T1 construct: hERα LBD (N304-T553: amino acid 304, asparagine, through amino acid 553, threonine); expressed in transfected cells; host or cells: E. coli FW102 OL2-62
T1 sequence (P03372 304-553): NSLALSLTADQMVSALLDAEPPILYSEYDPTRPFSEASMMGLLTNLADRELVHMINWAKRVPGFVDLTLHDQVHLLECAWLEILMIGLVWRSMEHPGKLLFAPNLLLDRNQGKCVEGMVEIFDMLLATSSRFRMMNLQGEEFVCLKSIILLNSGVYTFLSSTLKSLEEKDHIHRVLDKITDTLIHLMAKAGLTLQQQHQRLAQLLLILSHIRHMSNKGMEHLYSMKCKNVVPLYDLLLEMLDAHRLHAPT
T1 sequence (P48552 whole entry partner, the tested form may be a part): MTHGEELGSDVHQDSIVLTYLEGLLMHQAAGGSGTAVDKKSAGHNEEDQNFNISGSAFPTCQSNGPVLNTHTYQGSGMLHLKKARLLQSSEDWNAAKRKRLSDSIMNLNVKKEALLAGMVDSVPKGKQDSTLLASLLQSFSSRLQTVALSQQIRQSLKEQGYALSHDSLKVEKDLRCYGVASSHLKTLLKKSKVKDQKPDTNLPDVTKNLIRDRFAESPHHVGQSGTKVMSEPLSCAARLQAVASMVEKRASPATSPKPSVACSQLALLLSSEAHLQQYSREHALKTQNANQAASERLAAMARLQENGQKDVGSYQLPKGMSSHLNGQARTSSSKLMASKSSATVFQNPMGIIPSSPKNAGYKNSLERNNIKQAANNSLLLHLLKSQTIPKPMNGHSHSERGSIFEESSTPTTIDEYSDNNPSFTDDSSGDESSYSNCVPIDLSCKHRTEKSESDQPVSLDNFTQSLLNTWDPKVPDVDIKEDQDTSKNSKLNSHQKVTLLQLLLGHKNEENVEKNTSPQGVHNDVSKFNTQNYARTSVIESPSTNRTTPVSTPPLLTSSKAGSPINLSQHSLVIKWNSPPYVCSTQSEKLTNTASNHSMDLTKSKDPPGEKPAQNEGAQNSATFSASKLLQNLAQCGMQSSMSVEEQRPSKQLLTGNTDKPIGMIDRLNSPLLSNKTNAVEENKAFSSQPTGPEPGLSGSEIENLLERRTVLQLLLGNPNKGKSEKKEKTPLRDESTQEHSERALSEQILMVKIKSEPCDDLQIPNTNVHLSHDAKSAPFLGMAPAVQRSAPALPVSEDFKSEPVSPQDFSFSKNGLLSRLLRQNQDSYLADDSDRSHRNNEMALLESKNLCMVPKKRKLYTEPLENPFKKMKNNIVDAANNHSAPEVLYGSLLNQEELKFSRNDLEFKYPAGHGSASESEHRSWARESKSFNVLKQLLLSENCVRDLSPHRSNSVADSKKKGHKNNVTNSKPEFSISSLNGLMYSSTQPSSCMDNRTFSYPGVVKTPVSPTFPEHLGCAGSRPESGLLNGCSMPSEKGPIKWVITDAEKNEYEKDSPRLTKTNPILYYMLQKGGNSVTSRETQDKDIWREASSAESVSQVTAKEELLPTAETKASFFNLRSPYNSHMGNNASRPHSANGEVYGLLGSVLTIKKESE
T1 sequence (P0A7Z4 1-248 partner limits assumed): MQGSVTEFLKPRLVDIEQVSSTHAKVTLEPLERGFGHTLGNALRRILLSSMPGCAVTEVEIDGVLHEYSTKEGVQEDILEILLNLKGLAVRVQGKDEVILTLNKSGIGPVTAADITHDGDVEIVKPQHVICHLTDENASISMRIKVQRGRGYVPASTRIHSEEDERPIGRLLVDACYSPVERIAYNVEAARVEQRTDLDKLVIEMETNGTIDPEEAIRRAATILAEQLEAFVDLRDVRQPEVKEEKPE
T1 sequence (P03034 whole entry partner, the tested form may be a part): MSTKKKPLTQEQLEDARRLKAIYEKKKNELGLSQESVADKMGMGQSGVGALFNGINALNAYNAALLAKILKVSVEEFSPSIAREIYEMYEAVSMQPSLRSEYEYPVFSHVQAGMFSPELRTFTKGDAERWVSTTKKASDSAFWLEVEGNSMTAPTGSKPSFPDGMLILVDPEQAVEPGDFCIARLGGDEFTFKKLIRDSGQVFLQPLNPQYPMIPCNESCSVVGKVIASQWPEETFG
Experimental: (§1) Afterward, estrogens and EDCs were added at corresponding concentrations, and the cells were further incubated for 30 minutes. Subsequently, 800 μL of the cells were harvested, and resuspended in 800 μL of a buffer solution (60 mM of Na2HPO4, 40 mM of NaH2PO4, 10 mM of KCl, 1 mM of MgSO47H2O, 400 μM of dithiothreitol), followed by measuring OD600 (cell content). Afterward, the cells were lysed by ultrasonication and treated with 160 μL of 4 mg/mL ONPG, and thus a time to change a color of the specimen into yellow was recorded. When the color of the specimen changed to yellow, the reaction was stopped with 400 μL of 1M Na2CO3.

hERα LBD [2] = conditions: LE7197, lacZ expression in Miller units, with IPTG, 30 minutes incubation
Experimental: as §1, with “The E. coli FW102 OL2-62 pACλCI::TIF2 BD-FLAG pBRαNTD::hERα LBD-FLAG strain was inoculated, and cultured up to OD600˜ 0.4 (20 μM IPTG added; the inducible substance for inducing expression of λCI-TIF2 BD-FLAG and αNTD-hERα LBD-FLAG). Afterward, estrogens” for “Afterward, estrogens”
Afterward, through β-galactosidase analysis, the expression of a reporter gene, the lacZ gene, was expressed in terms of Miller units.

Molecule	Miller units as a function of compound concentration in the specimen (hERα LBD [1])	concentration that can be sensed/detected by sensor strain (hERα LBD [2])
CC(C)(c1ccc(O)cc1)c1ccc(O)cc1 [bisphenol A]	the higher the Miller units	–
Oc1ccc(Cc2ccc(O)cc2)cc1 [bisphenol F]	–	several hundred
O=S(=O)(c1ccc(O)cc1)c1ccc(O)cc1 [bisphenol S]	–	several hundred
nonylphenol	the higher the Miller units	approximately 100 nM
